# From ChEMBL document CHEMBL1201862, “PubChem BioAssay data set” (2004)
# The source made the active and inactive calls.
# Key:
# [1] = viability loss in human Jurkat cells – cell-based, luminescence, cytotoxicity control for P. falciparum gametocyte viability project, dose response (AID 1117277); type: functional;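 note: potency reflects loss of cellular ATP meaning fewer viable cells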
# [2] = viability inhibitors of stage V gametocytes – luminescence, dose response (AID 1117278); type: functional, cell-based;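 note: gametocytes exposed to compound for 24 hours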
# [3] = molecular target: G-protein coupled receptor 183 (Homo sapiens, UniProt P32249); test: SAR confirmation of small molecule antagonists of the EBI2 receptor via a luminescent beta-arrestin assa.; type: functional
# Sequence of G-protein coupled receptor 183 (P32249 whole entry): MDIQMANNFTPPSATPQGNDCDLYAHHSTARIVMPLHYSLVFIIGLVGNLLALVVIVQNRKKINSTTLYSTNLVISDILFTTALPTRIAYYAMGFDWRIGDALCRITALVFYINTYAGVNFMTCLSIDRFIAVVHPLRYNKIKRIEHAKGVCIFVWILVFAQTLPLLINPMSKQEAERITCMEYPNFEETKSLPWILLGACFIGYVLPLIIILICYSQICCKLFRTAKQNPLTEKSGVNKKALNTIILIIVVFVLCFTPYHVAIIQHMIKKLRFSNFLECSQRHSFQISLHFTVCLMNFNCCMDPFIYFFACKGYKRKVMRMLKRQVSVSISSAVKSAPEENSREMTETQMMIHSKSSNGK
# [4] = molecular target: T1, Probable nicotinate-nucleotide adenylyltransferase (Staphylococcus aureus (strain N315), UniProt P65502); type: functional, Staphylococcus aureus subsp. aureus N315;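 for IC50 Mean: confirmatory dose-response retesting of NadD inhibitor hits first found in an ultra-high-throughput screen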
# T1 sequence (P65502 whole entry): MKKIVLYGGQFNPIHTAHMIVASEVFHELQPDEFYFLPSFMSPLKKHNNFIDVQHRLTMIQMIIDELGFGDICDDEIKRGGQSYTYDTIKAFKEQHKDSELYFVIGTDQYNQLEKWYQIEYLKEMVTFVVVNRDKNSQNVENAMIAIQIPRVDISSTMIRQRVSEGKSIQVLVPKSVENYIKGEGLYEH
# [5] = viability loss in THP-1 monocytes – THP-1 cells, cytotoxicity control for Vif-APOBEC3G degradation inhibitor project, dose response (AID 1117359); type: functional; conditions: THP-1
# [6] = molecular target: T2, Carboxy-terminal domain RNA polymerase II polypeptide A small phosphatase 1 (Homo sapiens, UniProt Q9GZU7); test: CTDSP1 inhibitors, concentration-response, biochemical, absorbance readout, ultra-high-throughput screen actives (AID 540297); type: functional
# T2 sequence (Q9GZU7 whole entry): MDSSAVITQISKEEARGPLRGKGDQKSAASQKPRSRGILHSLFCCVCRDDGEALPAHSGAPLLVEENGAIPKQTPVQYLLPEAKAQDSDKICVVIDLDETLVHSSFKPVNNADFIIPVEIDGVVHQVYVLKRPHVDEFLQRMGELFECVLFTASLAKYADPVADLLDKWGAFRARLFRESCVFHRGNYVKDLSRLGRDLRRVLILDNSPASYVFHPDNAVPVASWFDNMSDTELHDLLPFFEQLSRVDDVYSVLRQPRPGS
# [7] = molecular target: T3, Small ubiquitin-related modifier 1 (Homo sapiens, UniProt P63165); test: SUMO1 protein interaction blockers, potency – biochemical, fluorescence polarization, uHTS hits, dose response (AID 624382); type: functional; conditions: read-out: IC50_Mean
# T3 sequence (P63165 whole entry): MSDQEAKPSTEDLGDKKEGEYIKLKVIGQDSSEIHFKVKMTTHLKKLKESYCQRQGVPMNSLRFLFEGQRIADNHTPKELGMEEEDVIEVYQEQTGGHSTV
# [8] = molecular target: T3, Small ubiquitin-related modifier 1; test: SUMO1 protein-protein binding blockers, potency – biochemical, FRET, dose response (AID 624383); type: functional; conditions: read-out: IC50_Mean
# [9] = molecular target: T1, Probable nicotinate-nucleotide adenylyltransferase; type: functional, Staphylococcus aureus subsp. aureus N315; conditions: read-out: IC50_Mean
# Protein Tat = Protein Tat (Human immunodeficiency virus type 1 group M subtype B (isolate HXB2)(HIV-1), UniProt P04608); type: functional;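 note: tat binding to TAR RNA read out by fluorescence polarization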
# Sequence of Protein Tat (P04608 whole entry): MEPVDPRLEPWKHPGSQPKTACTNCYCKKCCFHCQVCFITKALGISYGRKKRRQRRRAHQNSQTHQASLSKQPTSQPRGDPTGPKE
# [10] = M. tuberculosis H37Rv growth inhibitors, H37Rv strain (AID 1626); type: functional
# [11] = growth inhibition of PfATP4-mutant resistant parasites – NITD609-resistant line, SYBR Green, dry powder, dose response (AID 1159571); type: functional, cell-based;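 note: parasites synchronized at ring stage by sorbitol before testing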
# [12] = growth inhibition of yeast DHODH-expressing 3D7 parasites – SYBR Green, dry powder samples, dose response (AID 1159570); type: functional, cell-based;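 note: parasite growth measured after 72 hours of compound exposure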
# [13] = P. falciparum Dd2 growth inhibitors, dose response, SYBR Green, cherry-picked samples (AID 1159567); type: functional, cell-based
# [14] = Dd2 malaria parasite growth inhibition potency – SYBR Green, dry powder samples, dose response (AID 1159566); type: functional, cell-based;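 note: potency for growth inhibition with lower SYBR green DNA signal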
# [15] = toxicity to human hepatoma HepG2 cells – cell-based, cherry-picked samples, cytotoxicity control, dose response (AID 1159577); type: functional
# Nonstructural protein 1 = Nonstructural protein 1 (Influenza A virus, UniProt Q194T2); type: functional, Influenza A virus (A/California/07/2009(H1N1))
# Sequence of Nonstructural protein 1 (Q194T2 whole entry): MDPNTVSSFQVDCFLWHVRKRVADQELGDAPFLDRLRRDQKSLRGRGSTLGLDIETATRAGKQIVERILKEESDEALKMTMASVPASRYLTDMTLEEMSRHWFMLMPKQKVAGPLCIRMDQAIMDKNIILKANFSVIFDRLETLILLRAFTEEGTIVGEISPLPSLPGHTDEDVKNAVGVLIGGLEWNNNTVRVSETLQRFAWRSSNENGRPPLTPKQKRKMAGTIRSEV
# [16] = molecular target: T4, Mannose-6-phosphate isomerase (Homo sapiens, UniProt P34949); test: MPI enzyme activity inhibition – biochemical, fluorescence intensity, coupled assay, primary screen (AID 1209)
# T4 sequence (P34949 whole entry): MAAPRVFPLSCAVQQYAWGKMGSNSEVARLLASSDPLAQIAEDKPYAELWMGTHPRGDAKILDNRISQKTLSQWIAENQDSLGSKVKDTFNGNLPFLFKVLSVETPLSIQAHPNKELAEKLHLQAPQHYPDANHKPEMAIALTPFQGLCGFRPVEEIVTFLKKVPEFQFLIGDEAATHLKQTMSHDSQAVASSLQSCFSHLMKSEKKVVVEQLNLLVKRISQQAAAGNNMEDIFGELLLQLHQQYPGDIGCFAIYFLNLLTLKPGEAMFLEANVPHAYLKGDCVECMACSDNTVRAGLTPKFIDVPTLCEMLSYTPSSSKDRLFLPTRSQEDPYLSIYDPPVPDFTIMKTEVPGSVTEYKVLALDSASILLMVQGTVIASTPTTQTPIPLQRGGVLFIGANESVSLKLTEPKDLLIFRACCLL
# [17] = molecular target: T5, Rac GTPase-activating protein 1 (Homo sapiens, UniProt Q9H0H5); test: blockers of MgcRacGAP-driven Rac1 GTP hydrolysis – biochemical, ADP Hunter fluorescence, primary and confirmatory, confirmation (AID 624330); type: functional
# T5 sequence (Q9H0H5 whole entry): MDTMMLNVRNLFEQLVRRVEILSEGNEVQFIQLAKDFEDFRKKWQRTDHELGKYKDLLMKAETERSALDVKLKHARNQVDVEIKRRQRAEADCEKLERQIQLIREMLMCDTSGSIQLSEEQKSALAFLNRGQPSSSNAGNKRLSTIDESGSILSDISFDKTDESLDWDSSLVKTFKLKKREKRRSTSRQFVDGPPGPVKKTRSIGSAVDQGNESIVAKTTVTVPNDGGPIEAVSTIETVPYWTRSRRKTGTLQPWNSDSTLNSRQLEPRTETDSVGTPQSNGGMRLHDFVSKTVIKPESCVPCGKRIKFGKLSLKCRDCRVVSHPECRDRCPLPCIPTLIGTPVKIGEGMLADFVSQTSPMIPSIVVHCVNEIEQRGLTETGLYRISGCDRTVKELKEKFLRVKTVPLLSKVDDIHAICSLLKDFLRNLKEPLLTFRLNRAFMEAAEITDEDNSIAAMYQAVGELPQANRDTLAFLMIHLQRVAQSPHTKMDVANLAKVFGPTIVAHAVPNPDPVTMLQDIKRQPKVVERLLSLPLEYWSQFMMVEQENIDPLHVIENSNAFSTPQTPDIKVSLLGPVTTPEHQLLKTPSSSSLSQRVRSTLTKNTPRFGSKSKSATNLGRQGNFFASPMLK
smiles,measurement,setting,value
Cc1ccc2nc(-c3ccccc3)c(-c3ccccc3)nc2c1,IC50,[1],> 83.3 µM (inactive)
same,IC50,[2],> 109 µM (inactive)
O=C(/C=C/c1ccc(Br)cc1)N1CCN(Cc2ccc(F)cc2C(F)(F)F)CC1,IC50,[3],0.00818 µM (active)
O=C(COC(=O)c1c2c(nc3ccccc13)/C(=C\c1ccco1)CC2)NC1CCCC1,IC50,[4],8.49 µM (active)
same,CC50,[5],> 40 µM (active)
same,IC50,[6],2.49 µM (active)
same,IC50,[7],> 66.6 µM (inactive)
same,IC50,[8],10.4 µM (active)
same,IC50,[9],16.9 µM (active)
same,IC50,Protein Tat,> 100 µM (active)
CCOc1ccc(NC(=O)CCN2CCN(c3ccccc3)CC2)cc1,IC50,[10],> 100 µM (active)
C[C@@H]1CN([C@@H](C)CO)C(=O)Cc2cc(NC(=O)Nc3ccc4c(c3)OCO4)ccc2O[C@@H]1CN(C)CC1CC1,AC50,[11],2.76 µM (active)
same,AC50,[12],4.73 µM (active)
same,AC50,[13],2.37 µM (active)
same,AC50,[14],2.02 µM (active)
Fc1cccc(-c2ccc([C@@H]3[C@@H]4CN(Cc5cccnc5)C[C@H]3N4)cc2)c1,AC50,[15],13 µM (active)
same,AC50,[13],0.348 µM (active)
NC(=S)N/N=C/c1cccc(O)c1O,IC50,Nonstructural protein 1,4.5 µM (active)
same,IC50,[16],11 µM (active)
same,IC50,[17],31.5 µM (active)
